From a melting point compilation (Tetko et al.; mined from patent text by program, amines drawn as free bases though some values may be those of a salt)

melting point | Structure (SMILES)
187 to 188 °C | Cn1ccnc1N1CCC(c2ccc(N)cc2)CC1
162 to 164 °C | CC(=O)NCC1CC(c2ccc(-n3ccc(CO)c3)c(F)c2)=NO1 (single isomer, unassigned; (-))
94 to 95 °C | CC1C(c2ccc([N+](=O)[O-])cc2)CC(=O)N1C (stereo unspecified)
219 to 221 °C | COc1ccc(-c2c(Br)c(CN3C(=O)CCC3=O)nc3sc4c(c23)CCNC4)cc1
139 to 140 °C | CC(C)Nc1cccnc1N1CCN(C(=O)c2ccc(C(=O)NCCCO)cn2)CC1
73 °C | CCCC1(C)CC(C)c2cc(C(C)=O)c(O)c(C)c2O1 (stereo unspecified)
153 to 155 °C | CCCCCCCCOc1ccc2nc(C(=O)NCC(=O)O)c(O)cc2c1
160 to 161 °C | CN(Cc1ccccc1)C(=O)Cn1c(=O)n(C)c2nc(-c3ccccc3)ncc21
148 to 150 °C | CCCCc1nn2c(c1Cc1ccc(C(=O)O)cc1)CCCC2
104 to 106 °C | Nc1ccc2c(c1)N(C1CCN(CCc3ccc(F)cc3)CC1)CC2
24 to 25 °C | CC(CSC#N)C(=O)O (stereo unspecified)
127 to 132 °C | CCCC1(CCC)c2cc(Br)ccc2-c2cc(OC)c(Br)cc21
145 to 147 °C | O=C(O)CCCCc1ccc(NS(=O)(=O)c2ccc(Cl)cc2)cn1
94 to 96 °C | CC(C)N(C)c1nccc(Oc2ccc(NC(=O)c3cc(F)cc(N4CCOCC4)c3)c3ccccc23)n1
108 to 111 °C | CC(C)Cc1cccc(CCCn2c(=O)c3c(Cl)cc(Cl)cc3n(Cc3ccccc3)c2=O)c1
113 to 115 °C | O=C(O)c1ccccc1OC1CCOC1=O (stereo unspecified)
205 to 207 °C | Cn1c(=O)c2c(ncn2CCCN2CCN(c3nccnc3Cl)CC2)n(C)c1=O
263 to 265 °C | CCOC(=O)c1cnn2c1[nH]c(=O)c1cnc3c(cnn3CC)c12
80 to 81 °C | CC1(C)CCC(C(=O)O)c2ccccc21 (stereo unspecified)
86 to 87 °C | CCC(CC)c1nn(-c2ccc(C(F)(F)F)nn2)cc1CCCO
197 to 199 °C | COc1cc2c3c(n(C)c(=O)c2cc1OC)-c1cc2c(cc1C3=CCCCBr)OCO2

The next lines start with the compound.

Structure (SMILES) | melting point
CC(C)(c1ccc(N)cc1)c1ccc(N)cc1 | 130 to 132 °C
O=C1N=NC(CO)=C1c1ccccc1 | 165 to 168 °C
CC(=O)CCCc1ccc(S(N)(=O)=O)s1 | 54 to 57 °C
O=C(OCC1CCCO1)C1Oc2ccccc2Cc2ccccc2O1 (stereo unspecified) | 83 to 85 °C
COc1ccc(CNc2c(-c3cc(Cl)ccc3O)c3cc(C(F)(F)F)ccc3[nH]c2=O)cc1 | 103 to 106 °C
O=S(=O)(C#Cc1ccccc1)c1ccccc1 | 73 °C
CN(C)CC(=O)Nc1cccc(NC(=O)Nc2ccc(N(CCCl)CCCl)cc2)c1 | 62 to 64 °C
CCC1CCCC(C)C1=NC(C)COC (stereo unspecified) | 109 to 113 °C
NC(=O)COc1ncc(Cl)c(N)c1Cl | 192 to 193 °C
O=C(NCCCSc1ccncc1)c1ccccc1CO | 110 to 111 °C
N[C@@H](C/C(=C\C1CCCCC1)C(=O)O)C(=O)O | 205 °C
CS(=O)(=O)c1ccc(-c2cc(C(F)(F)F)nn2-c2ccc(O)cc2)cc1 | 243 to 244 °C
CCc1c(C(=O)C(N)=O)c2c(OCC(=O)O)cc3c(c2n1Cc1ccccc1)CCCC3 | 222 to 225 °C
COc1ccccc1-n1c(=O)[nH]c2c(C(N)=O)nc(N[C@@H]3CCNC3)nc21 | > 400 °C
COC(=O)c1ccc(OC)c(N(C(C)=O)c2cc(Cl)cc(Cl)c2)c1 | 100 to 101 °C
O=C(O)C(CC1CCCC1)c1ccc(S(=O)(=O)C2CCCC2)cc1 (stereo unspecified) | 165 to 167 °C
Clc1ccc(NN=Cc2ccccc2)cc1 | 122 to 123 °C
Cc1c(NC(=O)c2cc3c(s2)CCCC3)cccc1-c1cn(C)c(=O)c(Nc2ccc([C@@H](C(=O)N(C)C)N(C)C(C)C)cc2)n1 | 133 to 134 °C
COc1cccc2cc(CNCCN3C(=O)CC4(CCCC4)CC3=O)oc12 | 156 to 158 °C
COC(=O)c1ccc(N2CCOCC2)c(NC(=N)N)c1 | 152 to 154 °C
